The source of these data is ChEMBL document CHEMBL5653631, “A Potent and Selective ULK1 Inhibitor Suppresses Autophagy and Sensitizes Cancer Cells to Nutrient Stress” (iScience, 2018).

In experiment [1] the target is Dual specificity protein kinase CLK4 (Homo sapiens) (UniProt Q9HAZ1). The experiment is described as follows: Inhibition of human recombinant CLK4 at 15 nM in presence of ATP by radiometric assay relative to control.
Experiment [2] addresses Homeodomain-interacting protein kinase 1 (Homo sapiens) (UniProt Q86Z02). Description: Inhibition of human recombinant HIPK1 at 15 nM in presence of ATP by radiometric assay relative to control.
Experiment [3] deals with T1, Serine/threonine-protein kinase Nek9 (Homo sapiens) (UniProt Q8TD19).
T1 sequence (whole entry): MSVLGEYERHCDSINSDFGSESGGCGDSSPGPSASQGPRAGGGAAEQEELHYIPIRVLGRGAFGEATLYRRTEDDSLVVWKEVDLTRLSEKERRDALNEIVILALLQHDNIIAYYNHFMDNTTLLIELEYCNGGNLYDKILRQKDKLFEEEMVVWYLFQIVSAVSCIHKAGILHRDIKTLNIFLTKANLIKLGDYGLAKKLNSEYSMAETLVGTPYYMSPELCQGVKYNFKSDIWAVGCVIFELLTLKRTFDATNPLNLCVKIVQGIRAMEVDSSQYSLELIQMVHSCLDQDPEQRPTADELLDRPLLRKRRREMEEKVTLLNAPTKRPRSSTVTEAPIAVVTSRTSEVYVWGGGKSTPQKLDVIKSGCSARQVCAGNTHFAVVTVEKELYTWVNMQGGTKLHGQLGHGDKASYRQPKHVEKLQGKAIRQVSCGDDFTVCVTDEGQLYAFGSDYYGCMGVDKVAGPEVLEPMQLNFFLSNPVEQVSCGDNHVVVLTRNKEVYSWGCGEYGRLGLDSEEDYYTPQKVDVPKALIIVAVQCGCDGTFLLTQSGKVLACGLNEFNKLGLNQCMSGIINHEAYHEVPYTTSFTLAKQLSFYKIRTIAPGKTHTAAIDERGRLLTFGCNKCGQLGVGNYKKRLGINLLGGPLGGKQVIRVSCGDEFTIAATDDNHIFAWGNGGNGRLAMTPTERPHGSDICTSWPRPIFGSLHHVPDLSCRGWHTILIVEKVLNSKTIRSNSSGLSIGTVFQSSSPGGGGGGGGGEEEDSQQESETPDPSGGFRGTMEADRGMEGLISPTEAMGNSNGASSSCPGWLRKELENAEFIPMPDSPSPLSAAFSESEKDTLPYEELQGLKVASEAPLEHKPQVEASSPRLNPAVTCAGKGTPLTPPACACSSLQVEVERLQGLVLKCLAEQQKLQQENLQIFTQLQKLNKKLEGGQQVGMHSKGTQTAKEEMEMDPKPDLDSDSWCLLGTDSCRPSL
Description: Inhibition of human recombinant NEK9 at 15 nM in presence of ATP by radiometric assay relative to control.

The species named for experiment [4] is Homo sapiens. Description: Inhibition of human recombinant CK1d at 40 nM in presence of ATP by radiometric assay relative to control.
For experiment [5], the target named is T1, Serine/threonine-protein kinase Nek9 (Homo sapiens). The experiment is described as follows: Inhibition of human recombinant NEK9 at 40 nM in presence of ATP by radiometric assay relative to control.
Experiment [6] deals with Receptor-interacting serine/threonine-protein kinase 2 (Homo sapiens) (UniProt O43353). The experiment is described as follows: Inhibition of human recombinant RIPK2 at 40 nM in presence of ATP by radiometric assay relative to control.
Receptor-interacting serine/threonine-protein kinase 2 (Homo sapiens), sequence (O43353 whole entry): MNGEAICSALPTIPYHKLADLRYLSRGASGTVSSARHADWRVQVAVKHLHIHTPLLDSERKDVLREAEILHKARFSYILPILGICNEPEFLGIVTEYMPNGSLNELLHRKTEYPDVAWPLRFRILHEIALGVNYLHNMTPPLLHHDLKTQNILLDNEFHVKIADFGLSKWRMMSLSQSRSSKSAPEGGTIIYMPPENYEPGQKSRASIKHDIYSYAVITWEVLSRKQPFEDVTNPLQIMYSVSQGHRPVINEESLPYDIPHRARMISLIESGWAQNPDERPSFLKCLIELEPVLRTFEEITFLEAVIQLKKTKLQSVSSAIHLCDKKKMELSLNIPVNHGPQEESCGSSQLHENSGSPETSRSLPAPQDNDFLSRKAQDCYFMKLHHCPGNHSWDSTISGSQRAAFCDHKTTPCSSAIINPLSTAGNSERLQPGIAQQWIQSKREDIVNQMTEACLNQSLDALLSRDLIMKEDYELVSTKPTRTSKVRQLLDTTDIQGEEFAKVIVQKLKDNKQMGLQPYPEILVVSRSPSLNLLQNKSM
Experiment [7] concerns the target T2, Inhibitor of nuclear factor kappa-B kinase subunit alpha (Homo sapiens) (UniProt O15111).
T2 sequence (whole entry): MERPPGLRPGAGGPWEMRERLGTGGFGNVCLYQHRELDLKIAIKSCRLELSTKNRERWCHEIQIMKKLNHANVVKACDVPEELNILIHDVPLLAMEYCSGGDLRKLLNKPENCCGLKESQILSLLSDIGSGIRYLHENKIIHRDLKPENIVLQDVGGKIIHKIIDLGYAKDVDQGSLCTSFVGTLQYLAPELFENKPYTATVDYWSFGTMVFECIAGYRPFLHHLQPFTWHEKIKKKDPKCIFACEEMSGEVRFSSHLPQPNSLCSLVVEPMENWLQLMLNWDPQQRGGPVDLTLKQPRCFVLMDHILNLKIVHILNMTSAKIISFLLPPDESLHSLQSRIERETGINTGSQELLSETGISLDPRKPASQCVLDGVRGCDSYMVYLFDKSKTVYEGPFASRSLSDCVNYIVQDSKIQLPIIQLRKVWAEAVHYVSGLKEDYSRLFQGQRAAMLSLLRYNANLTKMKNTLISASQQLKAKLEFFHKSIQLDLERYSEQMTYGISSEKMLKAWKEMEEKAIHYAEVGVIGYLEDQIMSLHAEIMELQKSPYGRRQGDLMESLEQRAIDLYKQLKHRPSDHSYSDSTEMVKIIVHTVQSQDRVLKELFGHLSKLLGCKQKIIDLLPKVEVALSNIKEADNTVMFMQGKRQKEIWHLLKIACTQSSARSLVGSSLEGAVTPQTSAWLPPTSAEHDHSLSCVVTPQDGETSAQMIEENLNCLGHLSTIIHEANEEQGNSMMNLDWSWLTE
The experiment is described as follows: Inhibition of human recombinant IKKa at 40 nM related to control ULK1.

Experiment [8] addresses T3, Mitogen-activated protein kinase 13 (Homo sapiens) (UniProt O15264).
T3 sequence (whole entry): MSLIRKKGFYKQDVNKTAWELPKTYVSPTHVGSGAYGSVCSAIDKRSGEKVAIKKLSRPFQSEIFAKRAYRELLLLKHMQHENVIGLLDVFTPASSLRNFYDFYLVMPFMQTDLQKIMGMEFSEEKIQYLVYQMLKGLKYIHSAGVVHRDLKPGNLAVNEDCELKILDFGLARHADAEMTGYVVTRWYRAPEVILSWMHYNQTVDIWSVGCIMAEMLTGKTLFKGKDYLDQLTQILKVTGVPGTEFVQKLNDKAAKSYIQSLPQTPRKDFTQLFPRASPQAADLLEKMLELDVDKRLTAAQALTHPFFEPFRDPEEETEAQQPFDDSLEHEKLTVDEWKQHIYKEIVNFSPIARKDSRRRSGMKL
Description: Inhibition of human recombinant p38delta at 40 nM related to control ULK1.

Experiment [9] concerns the target Cyclin-dependent kinase 1 (Homo sapiens) (UniProt P06493). The experiment is described as follows: Inhibition of human recombinant CDC2 at 500 nM in presence of ATP by radiometric assay relative to control.
Experiment [10] concerns the target Serine/threonine-protein kinase NIM1 (Homo sapiens) (UniProt Q8IY84). Description: Inhibition of human recombinant NIM1 at 500 nM in presence of ATP by radiometric assay relative to control.

Dual specificity protein kinase CLK4 (Homo sapiens), sequence (Q9HAZ1 whole entry, looked up): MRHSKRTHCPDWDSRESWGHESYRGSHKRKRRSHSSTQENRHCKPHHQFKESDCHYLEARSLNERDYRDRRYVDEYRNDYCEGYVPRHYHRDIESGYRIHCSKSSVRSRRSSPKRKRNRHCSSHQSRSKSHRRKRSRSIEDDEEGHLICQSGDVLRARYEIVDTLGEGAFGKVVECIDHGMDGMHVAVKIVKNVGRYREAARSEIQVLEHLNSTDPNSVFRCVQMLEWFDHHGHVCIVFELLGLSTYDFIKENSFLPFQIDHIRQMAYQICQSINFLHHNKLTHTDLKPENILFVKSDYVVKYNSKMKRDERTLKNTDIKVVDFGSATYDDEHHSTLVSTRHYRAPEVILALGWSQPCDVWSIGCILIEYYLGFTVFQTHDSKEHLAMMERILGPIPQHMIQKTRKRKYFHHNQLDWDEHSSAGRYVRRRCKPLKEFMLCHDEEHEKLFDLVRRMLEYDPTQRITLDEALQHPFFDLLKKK
Homeodomain-interacting protein kinase 1 (Homo sapiens), sequence (Q86Z02 whole entry, looked up): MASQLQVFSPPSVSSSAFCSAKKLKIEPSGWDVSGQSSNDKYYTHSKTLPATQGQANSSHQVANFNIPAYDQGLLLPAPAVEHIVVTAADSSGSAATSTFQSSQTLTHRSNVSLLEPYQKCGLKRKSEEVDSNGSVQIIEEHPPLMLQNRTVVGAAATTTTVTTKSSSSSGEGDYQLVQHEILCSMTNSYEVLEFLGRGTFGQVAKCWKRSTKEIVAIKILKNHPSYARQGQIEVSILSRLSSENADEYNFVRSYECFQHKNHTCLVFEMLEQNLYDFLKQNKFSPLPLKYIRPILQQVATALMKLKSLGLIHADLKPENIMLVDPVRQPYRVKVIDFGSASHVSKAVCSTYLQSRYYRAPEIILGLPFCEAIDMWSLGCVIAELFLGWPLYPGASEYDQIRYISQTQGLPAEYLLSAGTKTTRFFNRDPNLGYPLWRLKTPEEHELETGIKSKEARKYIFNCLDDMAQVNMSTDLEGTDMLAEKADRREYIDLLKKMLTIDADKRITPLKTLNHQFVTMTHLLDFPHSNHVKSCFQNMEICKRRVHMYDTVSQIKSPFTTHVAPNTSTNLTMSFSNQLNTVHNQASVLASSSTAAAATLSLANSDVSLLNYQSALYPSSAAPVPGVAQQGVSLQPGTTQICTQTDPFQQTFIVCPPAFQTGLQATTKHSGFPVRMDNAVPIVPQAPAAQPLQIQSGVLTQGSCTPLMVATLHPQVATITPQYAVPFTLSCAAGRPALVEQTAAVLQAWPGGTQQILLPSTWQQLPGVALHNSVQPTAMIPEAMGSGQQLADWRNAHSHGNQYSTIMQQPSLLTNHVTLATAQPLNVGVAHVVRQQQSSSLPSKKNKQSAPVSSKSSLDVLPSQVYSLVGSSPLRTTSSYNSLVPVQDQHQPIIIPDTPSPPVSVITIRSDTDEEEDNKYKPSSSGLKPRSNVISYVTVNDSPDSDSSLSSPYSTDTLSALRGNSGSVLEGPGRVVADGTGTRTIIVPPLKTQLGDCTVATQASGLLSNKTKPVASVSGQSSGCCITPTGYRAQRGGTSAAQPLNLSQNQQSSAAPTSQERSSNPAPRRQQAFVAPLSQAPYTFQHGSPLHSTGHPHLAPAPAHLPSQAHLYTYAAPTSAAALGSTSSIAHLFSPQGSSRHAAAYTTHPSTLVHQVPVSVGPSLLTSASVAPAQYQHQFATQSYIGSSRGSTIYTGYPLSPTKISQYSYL
Cyclin-dependent kinase 1 (Homo sapiens), sequence (P06493 whole entry, looked up): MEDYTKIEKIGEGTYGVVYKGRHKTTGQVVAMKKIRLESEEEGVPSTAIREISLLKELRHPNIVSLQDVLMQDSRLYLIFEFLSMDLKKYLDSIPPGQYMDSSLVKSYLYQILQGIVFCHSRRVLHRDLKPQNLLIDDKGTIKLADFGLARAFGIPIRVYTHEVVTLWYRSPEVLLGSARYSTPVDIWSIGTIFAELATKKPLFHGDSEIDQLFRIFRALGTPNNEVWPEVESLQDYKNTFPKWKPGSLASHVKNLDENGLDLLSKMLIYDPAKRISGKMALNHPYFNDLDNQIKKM
Serine/threonine-protein kinase NIM1 (Homo sapiens), sequence (Q8IY84 whole entry): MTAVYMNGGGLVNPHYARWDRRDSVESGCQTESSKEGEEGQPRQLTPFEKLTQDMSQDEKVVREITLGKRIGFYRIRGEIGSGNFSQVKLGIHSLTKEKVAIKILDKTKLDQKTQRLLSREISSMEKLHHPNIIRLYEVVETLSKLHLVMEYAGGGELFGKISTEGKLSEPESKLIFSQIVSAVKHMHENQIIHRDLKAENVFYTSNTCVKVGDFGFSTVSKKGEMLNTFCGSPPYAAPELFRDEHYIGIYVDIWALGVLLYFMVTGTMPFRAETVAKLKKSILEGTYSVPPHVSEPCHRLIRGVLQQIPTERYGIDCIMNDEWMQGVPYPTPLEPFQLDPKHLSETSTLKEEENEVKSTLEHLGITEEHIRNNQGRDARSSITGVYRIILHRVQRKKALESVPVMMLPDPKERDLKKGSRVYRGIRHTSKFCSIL

The inhibition is the share of the control response that was lost under treatment. Take `CC(C)[C@H](NC(=O)c1cc(-c2cnn3cc(-c4ccc(OCCN5CCCCC5)cc4)cnc23)cs1)C(F)(F)F`: the inhibition in [1] was 83%; in [2], 0%; in experiment [3] it was 22%.
Regarding `O=C(N[C@@H](C1CC1)C(F)(F)F)c1cc(-c2cnn3cc(-c4ccc(F)cc4)cnc23)cs1`, the inhibition in [4] was determined as 3%; in experiment [5], 5%; in experiment [6] it was 30%. Further, the fold change (FC) stood at 0 in experiment [7] and 0.16 in experiment [8].
For `CNC(=O)c1ccccc1Oc1nc(Nc2cc(OC)c(OC)c(OC)c2)ncc1Br`, the inhibition in [9] is 30%; in experiment [10], 0%.
